Measurements published in PubChem BioAssay AID2060499 (Molecular Pharmacology Branch, DTP, NCI, 2025).

Test system: 777334-354-R2-J4-PDC tumor spheroids with HUVEC/MSC, viability
Assay: Anticancer human tumor 777334-354-R2-J4-PDC patient-derived pancreatic adenocarcinoma cell line growth inhibition [GQUAD]
Conditions: for IC50: curve of first compound; for viability, T/C: stronger effect = lower value
Method in brief: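 Viability of tumor cells grown as complex spheroids with endothelial and stromal cells, exposed to drug combinations. Top concentration at or near clinical Cmax (else 10 microM), diluted in half-log increments.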

[1] = second compound 0.0316 µM, first compound 0.0316 µM
[2] = second compound 0.0316 µM, first compound 0.1 µM
[3] = second compound 0.0316 µM, first compound 0.316 µM
[4] = second compound 0.0316 µM, first compound 1 µM
[5] = second compound 0.0316 µM, first compound 3.16 µM
[6] = second compound 0.0316 µM, first compound 10 µM
[7] = second compound 0.1 µM, first compound 0.0316 µM
[8] = second compound 0.1 µM, first compound 0.1 µM
[9] = second compound 0.1 µM, first compound 0.316 µM
[10] = second compound 0.1 µM, first compound 1 µM
[11] = second compound 0.1 µM, first compound 3.16 µM
[12] = second compound 0.1 µM, first compound 10 µM
[13] = second compound 0.316 µM, first compound 0.0316 µM
[14] = second compound 0.316 µM, first compound 0.1 µM
[15] = second compound 0.316 µM, first compound 0.316 µM
[16] = second compound 0.316 µM, first compound 1 µM
[17] = second compound 0.316 µM, first compound 3.16 µM
[18] = second compound 0.316 µM, first compound 10 µM
[19] = second compound 1 µM, first compound 0.0316 µM
[20] = second compound 1 µM, first compound 0.1 µM
[21] = second compound 1 µM, first compound 0.316 µM
[22] = second compound 1 µM, first compound 1 µM
[23] = second compound 1 µM, first compound 3.16 µM
[24] = second compound 1 µM, first compound 10 µM
[25] = second compound 3.16 µM, first compound 0.0316 µM
[26] = second compound 3.16 µM, first compound 0.1 µM
[27] = second compound 3.16 µM, first compound 0.316 µM
[28] = second compound 3.16 µM, first compound 1 µM
[29] = second compound 3.16 µM, first compound 3.16 µM
[30] = second compound 3.16 µM, first compound 10 µM
[31] = second compound 10 µM, first compound 0.0316 µM
[32] = second compound 10 µM, first compound 0.1 µM
[33] = second compound 10 µM, first compound 0.316 µM
[34] = second compound 10 µM, first compound 1 µM
[35] = second compound 10 µM, first compound 3.16 µM
[36] = second compound 10 µM, first compound 10 µM
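Also: spheroids exposed to compounds for 7 days before readout.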

SMILES: C=CCn1c(=O)c2cnc(Nc3ccc(N4CCN(C)CC4)cc3)nc2n1-c1cccc(C(C)(C)O)n1 + Cc1cnc(CNC(=O)c2c(=O)c3ccc(N4CCCN(C)CC4)nc3n3c2sc2ccccc23)cn1
- IC50 (second compound 0.0316 µM): 619 nM
- IC50 (second compound 0.1 µM): 299 nM
- IC50 (second compound 0.316 µM): 400 nM
- IC50 (second compound 1 µM): 360 nM
- IC50 (second compound 3.16 µM): 162 nM
- IC50 (second compound 10 µM): 68.3 nM
- viability, T/C [1]: 88.6%
- viability, T/C [2]: 75.3%
- viability, T/C [3]: 64.8%
- viability, T/C [4]: 37.5%
- viability, T/C [5]: 37.9%
- viability, T/C [6]: 38.4%
- viability, T/C [7]: 78.4%
- viability, T/C [8]: 67.8%
- viability, T/C [9]: 50.2%
- viability, T/C [10]: 37%
- viability, T/C [11]: 37%
- viability, T/C [12]: 38.5%
- viability, T/C [13]: 73%
- viability, T/C [14]: 72.1%
- viability, T/C [15]: 52.6%
- viability, T/C [16]: 39.8%
- viability, T/C [17]: 39.5%
- viability, T/C [18]: 40.5%
- viability, T/C [19]: 65.2%
- viability, T/C [20]: 64.4%
- viability, T/C [21]: 51.2%
- viability, T/C [22]: 40.6%
- viability, T/C [23]: 42.4%
- viability, T/C [24]: 38.2%
- viability, T/C [25]: 62.8%
- viability, T/C [26]: 56.3%
- viability, T/C [27]: 44.5%
- viability, T/C [28]: 37.3%
- viability, T/C [29]: 39.1%
- viability, T/C [30]: 35.1%
- viability, T/C [31]: 57.3%
- viability, T/C [32]: 46.8%
- viability, T/C [33]: 38.6%
- viability, T/C [34]: 32.6%
- viability, T/C [35]: 36.7%
- viability, T/C [36]: 27.8%

SMILES: CC(C)(O)C1CCC(Nc2ccc3ncc(-c4cccc(C(F)(F)F)c4)n3n2)CC1 (stereo not drawn) + Cc1cnc(CNC(=O)c2c(=O)c3ccc(N4CCCN(C)CC4)nc3n3c2sc2ccccc23)cn1
- IC50 (second compound 0.0316 µM): 880 nM
- IC50 (second compound 0.1 µM): 806 nM
- IC50 (second compound 0.316 µM): 838 nM
- IC50 (second compound 1 µM): 913 nM
- IC50 (second compound 3.16 µM): 776 nM
- IC50 (second compound 10 µM): < 31.6 nM
- viability, T/C [1]: 105%
- viability, T/C [2]: 74%
- viability, T/C [3]: 94.5%
- viability, T/C [4]: 44.8%
- viability, T/C [5]: 27.7%
- viability, T/C [6]: 35.2%
- viability, T/C [7]: 85%
- viability, T/C [8]: 74%
- viability, T/C [9]: 79.5%
- viability, T/C [10]: 43.2%
- viability, T/C [11]: 29.1%
- viability, T/C [12]: 35.4%
- viability, T/C [13]: 80.8%
- viability, T/C [14]: 71.5%
- viability, T/C [15]: 71.5%
- viability, T/C [16]: 46.5%
- viability, T/C [17]: 29.1%
- viability, T/C [18]: 31.3%
- viability, T/C [19]: 63%
- viability, T/C [20]: 67.4%
- viability, T/C [21]: 67%
- viability, T/C [22]: 48.6%
- viability, T/C [23]: 33%
- viability, T/C [24]: 30.7%
- viability, T/C [25]: 61.4%
- viability, T/C [26]: 68.9%
- viability, T/C [27]: 56.9%
- viability, T/C [28]: 48.4%
- viability, T/C [29]: 24.4%
- viability, T/C [30]: 23.9%
- viability, T/C [31]: 51.5%
- viability, T/C [32]: 40.1%
- viability, T/C [33]: 48.3%
- viability, T/C [34]: 36.1%
- viability, T/C [35]: 0.23%
- viability, T/C [36]: 0.19%

SMILES: CCCS(=O)(=O)Nc1ccc(F)c(C(=O)c2c[nH]c3ncc(-c4ccc(Cl)cc4)cc23)c1F + Cc1cnc(CNC(=O)c2c(=O)c3ccc(N4CCCN(C)CC4)nc3n3c2sc2ccccc23)cn1
- IC50 (second compound 0.0316 µM): 7160 nM
- IC50 (second compound 0.1 µM): 6930 nM
- IC50 (second compound 0.316 µM): 6740 nM
- IC50 (second compound 1 µM): 7160 nM
- IC50 (second compound 3.16 µM): > 10000 nM
- IC50 (second compound 10 µM): 3870 nM
- viability, T/C [1]: 99.3%
- viability, T/C [2]: 89.1%
- viability, T/C [3]: 105%
- viability, T/C [4]: 94.3%
- viability, T/C [5]: 106%
- viability, T/C [6]: 30%
- viability, T/C [7]: 83.5%
- viability, T/C [8]: 88.7%
- viability, T/C [9]: 104%
- viability, T/C [10]: 95.5%
- viability, T/C [11]: 88%
- viability, T/C [12]: 32.1%
- viability, T/C [13]: 88.7%
- viability, T/C [14]: 91.7%
- viability, T/C [15]: 69%
- viability, T/C [16]: 92.6%
- viability, T/C [17]: 93.3%
- viability, T/C [18]: 30.7%
- viability, T/C [19]: 68.8%
- viability, T/C [20]: 77.6%
- viability, T/C [21]: 78.5%
- viability, T/C [22]: 71.2%
- viability, T/C [23]: 74.9%
- viability, T/C [24]: 40.2%
- viability, T/C [25]: 59%
- viability, T/C [26]: 61.1%
- viability, T/C [27]: 68.9%
- viability, T/C [28]: 71.2%
- viability, T/C [29]: 72%
- viability, T/C [30]: 43.1%
- viability, T/C [31]: 52.7%
- viability, T/C [32]: 48.6%
- viability, T/C [33]: 68.2%
- viability, T/C [34]: 68.4%
- viability, T/C [35]: 65.2%
- viability, T/C [36]: 0.24%

SMILES: O=C(NO)c1cnc(N2CCN(S(=O)(=O)c3ccc4ccccc4c3)CC2)nc1 + Cc1cnc(CNC(=O)c2c(=O)c3ccc(N4CCCN(C)CC4)nc3n3c2sc2ccccc23)cn1
- IC50 (second compound 0.0316 µM): 726 nM
- IC50 (second compound 0.1 µM): 332 nM
- IC50 (second compound 0.316 µM): 537 nM
- IC50 (second compound 1 µM): 474 nM
- IC50 (second compound 3.16 µM): 331 nM
- IC50 (second compound 10 µM): < 31.6 nM
- viability, T/C [1]: 83.7%
- viability, T/C [2]: 71.9%
- viability, T/C [3]: 77.2%
- viability, T/C [4]: 39.7%
- viability, T/C [5]: 3.07%
- viability, T/C [6]: 0.21%
- viability, T/C [7]: 90.3%
- viability, T/C [8]: 63.1%
- viability, T/C [9]: 55.2%
- viability, T/C [10]: 36.6%
- viability, T/C [11]: 5.24%
- viability, T/C [12]: 0.33%
- viability, T/C [13]: 69.3%
- viability, T/C [14]: 72%
- viability, T/C [15]: 53.8%
- viability, T/C [16]: 42.7%
- viability, T/C [17]: 5.34%
- viability, T/C [18]: 0.23%
- viability, T/C [19]: 65.6%
- viability, T/C [20]: 60%
- viability, T/C [21]: 55%
- viability, T/C [22]: 37.7%
- viability, T/C [23]: 4.8%
- viability, T/C [24]: 0.13%
- viability, T/C [25]: 49%
- viability, T/C [26]: 53.8%
- viability, T/C [27]: 50.2%
- viability, T/C [28]: 31.5%
- viability, T/C [29]: 0.68%
- viability, T/C [30]: 0.12%
- viability, T/C [31]: 50.2%
- viability, T/C [32]: 44.8%
- viability, T/C [33]: 48.4%
- viability, T/C [34]: 0.22%
- viability, T/C [35]: 2.65%
- viability, T/C [36]: 0.22%
